Drawing on patent US11407737B2, “Inhibitors of RAF kinases” (Kinnate Biopharma Inc., priority 2020, dated 2022), this text covers IC50 for 24 molecules.

The structures appear in SMILES notation. A value given as a limit tells only on which side of the number the result lay.

For this assay, the target named is human RAF1 (Homo sapiens (Human), UniProt P04049). Put plainly: Protein kinase assay (radiometric 33P-ATP, MEK1 (K97R) substrate), RAF-1. The format is biochemical. The following applies: human MEK1 (K97R) substrate 3 micromolar, ATP 10 micromolar; 10-dose, 3-fold serial dilution starting at 10 micromolar; read-out: RAF-1 IC50. On the procedure: Example 1: Kinase Assay Protocol
Chain of human RAF1 (P04049 whole entry): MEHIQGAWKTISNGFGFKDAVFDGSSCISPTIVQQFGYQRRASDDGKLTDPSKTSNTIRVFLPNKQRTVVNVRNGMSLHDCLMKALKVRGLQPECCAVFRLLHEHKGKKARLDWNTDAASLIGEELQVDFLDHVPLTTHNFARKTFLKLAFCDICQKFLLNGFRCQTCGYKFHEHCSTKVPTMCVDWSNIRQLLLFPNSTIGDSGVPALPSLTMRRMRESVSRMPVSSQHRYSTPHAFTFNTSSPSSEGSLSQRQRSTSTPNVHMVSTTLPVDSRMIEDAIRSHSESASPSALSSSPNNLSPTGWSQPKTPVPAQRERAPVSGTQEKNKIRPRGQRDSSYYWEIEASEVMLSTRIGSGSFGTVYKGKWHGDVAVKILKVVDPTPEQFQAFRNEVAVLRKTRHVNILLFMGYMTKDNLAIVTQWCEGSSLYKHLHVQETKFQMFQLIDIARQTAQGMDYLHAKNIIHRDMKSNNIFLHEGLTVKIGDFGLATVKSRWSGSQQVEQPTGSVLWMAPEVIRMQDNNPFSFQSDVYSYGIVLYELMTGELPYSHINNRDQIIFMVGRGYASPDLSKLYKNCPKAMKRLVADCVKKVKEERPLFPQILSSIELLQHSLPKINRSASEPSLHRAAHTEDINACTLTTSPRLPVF
Assay platform was used to measure kinase/inhibitor interactions as described previously (Anastassiadis et al., 2011). In brief, for each reaction, kinase and substrate were mixed in a buffer containing 20 mM HEPES (pH 7.5), 10 mM MgCl2, 1 mM EGTA, 0.02% Brij35, 0.02 mg/mL BSA, 0.1 mM Na3VO4, 2 mM DTT, and 1% DMSO. All compounds were solubilized in DMSO. Compounds were then added to each reaction mixture via acoustic dispense using an ECHO 550 nanoliter dispenser. For human RAF1 testing, human MEK1 (K97R) was used as a substrate at a concentration of 3 micromolar, with a final ATP concentration of 10 micromolar. For human BRAF testing, human MEK1 (K97R) was used as a substrate at 1 micromolar concentration, with a final ATP concentration of 25 micromolar. […] After a 20-min incubation, ATP (Sigma-Aldrich, St. Louis, Mo. 63178) and [g33P] ATP (specific activity 10 microCi/microliter) purchased at PerkinElmer (Boston, Mass., 02118 Cat #BLU 003H250UC) were added at a final total concentration of […]. Reactions were carried out at room temperature for 2 hr and spotted onto P81 ion exchange cellulose chromatography paper (Reaction Biology). Filter paper was washed in 0.75% phosphoric acid to remove unincorporated ATP. The percent remaining kinase activity relative to a vehicle-containing (DMSO) kinase reaction was calculated for each kinase/inhibitor pair. IC50 values were calculated using Prism 5 (GraphPad).
As to `Cc1ccc(NC(=O)N2CC[C@@H](CC(F)(F)F)C2)cc1-c1cc(C(=O)NCC(C)(C)O)nc(N2CCOCC2)c1` [Example 9, N-(2-hydroxy-2-methylpropyl)-4-[2-methyl-5-[(3S)-3-(2,2,2-trifluoroethyl)pyrrolidine-1-carbonylamino]phenyl]-6-(morpholin-4-yl)pyridine-2-carboxamide], the IC50 (commonly the concentration that gives 50% inhibition) was in the range of 1 to 10 nM.

For `Cc1ccc(NC(=O)N2CC[C@@H](CC(F)(F)F)C2)cc1-c1cc(C#CC(C)(C)O)nc(N2CCOCC2)c1` [Example 10, (3S)—N-[3-[2-(3-hydroxy-3-methylbut-1-yn-1-yl)-6-(morpholin-4-yl)pyridin-4-yl]-4-methylphenyl]-3-(2,2,2-trifluoroethyl)pyrrolidine-1-carboxamide], the IC50 is 1 to 10 nM.

As to `Cc1ccc(NC(=O)N2CC[C@@H](CC(F)(F)F)C2)cc1-c1cc(C#C[C@@H](C)O)nc(N2CCOCC2)c1` [Example 11, (3S)—N-(3-[2-[(3R)-3-hydroxybut-1-yn-1-yl]-6-(morpholin-4-yl)pyridin-4-yl]-4-methylphenyl)-3-(2,2,2-trifluoroethyl)pyrrolidine-1-carboxamide], the IC50 lay within 1 to 10 nM. As for `Cc1ccc(NC(=O)N2CC[C@@H](CC(F)(F)F)C2)cc1-c1cc(CC[C@@H](C)O)nc(N2CCOCC2)c1` [Example 12, (3S)—N-(3-[2-[(3R)-3-hydroxybutyl]-6-(morpholin-4-yl)pyridin-4-yl]-4-methylphenyl)-3-(2,2,2-trifluoroethyl)pyrrolidine-1-carboxamide], the figure is below 1 nM; as for `Cc1ccc(NC(=O)N2CC[C@@H](CC(F)(F)F)C2)cc1-c1cc([C@@H]2C[C@@H]2CO)nc(N2CCOCC2)c1` [Example 13, (3S)—N-(3-[2-[(1R,2S)-2-(hydroxymethyl)cyclopropyl]-6-(morpholin-4-yl)pyridin-4-yl]-4-methylphenyl)-3-(2,2,2-trifluoroethyl)pyrrolidine-1-carboxamide], below 1 nM; as for `Cc1ccc(NC(=O)N2CC[C@@H](CC(F)(F)F)C2)cc1-c1cc(-c2cn(C)nn2)nc(N2CCOCC2)c1` [Example 14, (S)—N-(4-methyl-3-(2-(1-methyl-1H-1,2,3-triazol-4-yl)-6-morpholinopyridin-4-yl)phenyl)-3-(2,2,2-trifluoroethyl)pyrrolidine-1-carboxamide], 1 to 10 nM. As for `Cc1ccc(NC(=O)N2CC[C@@H](CC(F)(F)F)C2)cc1-c1cc(-c2cncs2)nc(N2CCOCC2)c1` [Example 15, (3S)—N-[4-methyl-3-[2-(morpholin-4-yl)-6-(1,3-thiazol-5-yl)pyridin-4-yl]phenyl]-3-(2,2,2-trifluoroethyl)pyrrolidine-1-carboxamide], the figure is 1 to 10 nM. Under `Cc1ccc(NC(=O)N2CC[C@@H](CC(F)(F)F)C2)cc1-c1cc(-c2cncn2C)nc(N2CCOCC2)c1` [Example 16, (3S)—N-[4-methyl-3-[2-(3-methylimidazol-4-yl)-6-(morpholin-4-yl)pyridin-4-yl]phenyl]-3-(2,2,2-trifluoroethyl)pyrrolidine-1-carboxamide] stands 1 to 10 nM; under `Cc1ccc(NC(=O)N2CC[C@@H](CC(F)(F)F)C2)cc1-c1cc(/C=C/[C@@H](C)O)nc(N2CCOCC2)c1` [Example 17, (3S)—N-(3-[2-[(1E,3R)-3-hydroxybut-1-en-1-yl]-6-(morpholin-4-yl)pyridin-4-yl]-4-methylphenyl)-3-(2,2,2-trifluoroethyl)pyrrolidine-1-carboxamide], 1 to 10 nM.

As for `Cc1ccc(NC(=O)N2CC[C@@H](CC(F)(F)F)C2)cc1-c1cc(C(=O)N(C)CCO)nc(N2CCOCC2)c1` [Example 18, N-(2-hydroxyethyl)-N-methyl-4-[2-methyl-5-[(3S)-3-(2,2,2-trifluoroethyl)pyrrolidine-1-carbonylamino]phenyl]-6-(morpholin-4-yl)pyridine-2-carboxamide], the IC50 was below 1 nM. On to `Cc1ccc(NC(=O)N2CC[C@@H](CC(F)(F)F)C2)cc1-c1cc(C(=O)N2CC(O)C2)nc(N2CCOCC2)c1` [Example 20, (3S)—N-[3-[2-(3-hydroxyazetidine-1-carbonyl)-6-(morpholin-4-yl)pyridin-4-yl]-4-methylphenyl]-3-(2,2,2-trifluoroethyl)pyrrolidine-1-carboxamide], for which the IC50 was below 1 nM. As for `Cc1ccc(NC(=O)N2CC[C@@H](CC(F)(F)F)C2)cc1-c1cc(C(=O)N2CC(C)(O)C2)nc(N2CCOCC2)c1` [Example 21, (3S)—N-[3-[2-(3-hydroxy-3-methylazetidine-1-carbonyl)-6-(morpholin-4-yl)pyridin-4-yl]-4-methylphenyl]-3-(2,2,2-trifluoroethyl)pyrrolidine-1-carboxamide], the figure is below 1 nM; as for `Cc1ccc(NC(=O)N2CC[C@@H](CC(F)(F)F)C2)cc1-c1cc(-c2cnn(C)c2)nc(N2CCOCC2)c1` [Example 22, (3S)—N-[4-methyl-3-[2-(1-methylpyrazol-4-yl)-6-(morpholin-4-yl)pyridin-4-yl]phenyl]-3-(2,2,2-trifluoroethyl)pyrrolidine-1-carboxamide], below 1 nM; as for `Cc1ccc(NC(=O)N2CC[C@@H](CC(F)(F)F)C2)cc1-c1cc(/C=C/CO)nc(N2CCOCC2)c1` [Example 23, (3S)—N-(3-[2-[(1E)-3-hydroxyprop-1-en-1-yl]-6-(morpholin-4-yl)pyridin-4-yl]-4-methylphenyl)-3-(2,2,2-trifluoroethyl)pyrrolidine-1-carboxamide], below 1 nM. Under `Cc1ccc(NC(=O)N2CC[C@@H](CC(F)(F)F)C2)cc1-c1cc(CCCO)nc(N2CCOCC2)c1` [Example 24, (3S)—N-[3-[2-(3-hydroxypropyl)-6-(morpholin-4-yl)pyridin-4-yl]-4-methylphenyl]-3-(2,2,2-trifluoroethyl)pyrrolidine-1-carboxamide] stands below 1 nM; under `COc1cc(-c2cc(-c3cc(NC(=O)N4CC[C@@H](CC(F)(F)F)C4)ccc3C)cc(N3CCOCC3)n2)ccn1` [Example 25, (3S)—N-[3-[2-methoxy-6-(morpholin-4-yl)-[2,4-bipyridin]-4-yl]-4-methylphenyl]-3-(2,2,2-trifluoroethyl)pyrrolidine-1-carboxamide], below 1 nM; under `Cc1ccc(NC(=O)N2CC[C@@H](CC(F)(F)F)C2)cc1-c1cc(-c2cnc(O)o2)nc(N2CCOCC2)c1` [Example 26, (3S)—N-[3-[2-(2-hydroxy-1,3-oxazol-5-yl)-6-(morpholin-4-yl)pyridin-4-yl]-4-methylphenyl]-3-(2,2,2-trifluoroethyl)pyrrolidine-1-carboxamide], below 1 nM. Under `Cc1ccc(NC(=O)N2CC[C@@H](CC(F)(F)F)C2)cc1-c1cc(N2CCOCC2)nc(C(C)(C)O)c1` [Example 27, (3S)—N-[3-[2-(2-hydroxypropan-2-yl)-6-(morpholin-4-yl)pyridin-4-yl]-4-methylphenyl]-3-(2,2,2-trifluoroethyl)pyrrolidine-1-carboxamide] stands 10 to 100 nM; under `Cc1ccc(NC(=O)N2CC[C@@H](CC(F)(F)F)C2)cc1-c1cc(C2CCCNC2)nc(N2CCOCC2)c1` (stereo partly drawn) [Example 28, (3S)—N-[4-methyl-3-[2-(morpholin-4-yl)-6-(piperidin-3-yl)pyridin-4-yl]phenyl]-3-(2,2,2-trifluoroethyl)pyrrolidine-1-carboxamide], 10 to 100 nM. For `Cc1ccc(NC(=O)N2CC[C@@H](CC(F)(F)F)C2)cc1-c1cc(C2CCCN(C)C2)nc(N2CCOCC2)c1` (stereo partly drawn) [Example 29, (3S)—N-[4-methyl-3-[2-(1-methylpiperidin-3-yl)-6-(morpholin-4-yl)pyridin-4-yl]phenyl]-3-(2,2,2-trifluoroethyl)pyrrolidine-1-carboxamide], the IC50 lay in the range of 1 to 10 nM. As for `Cc1ccc(NC(=O)N2CC[C@@H](CC(F)(F)F)C2)cc1-c1cc(-c2ccnc(O)c2)nc(N2CCOCC2)c1` [Example 30, (3S)—N-[3-[2-hydroxy-6-(morpholin-4-yl)-[2,4-bipyridin]-4-yl]-4-methylphenyl]-3-(2,2,2-trifluoroethyl)pyrrolidine-1-carboxamide], the figure is 1 to 10 nM. As for `Cc1ccc(NC(=O)N2CC[C@@H](CC(F)(F)F)C2)cc1-c1cc(C2=CCN(C)CC2)nc(N2CCOCC2)c1` [Example 31, (3S)—N-[4-methyl-3-[1′-methyl-6-(morpholin-4-yl)-3′,6′-dihydro-2′H-[2,4′-bipyridin]-4-yl]phenyl]-3-(2,2,2-trifluoroethyl)pyrrolidine-1-carboxamide], the figure is 10 to 100 nM; as for `Cc1ccc(NC(=O)N2CC[C@@H](CC(F)(F)F)C2)cc1-c1cc(CCO)nc(N2CCOCC2)c1` [Example 32, (3S)—N-[3-[2-(2-hydroxyethyl)-6-(morpholin-4-yl)pyridin-4-yl]-4-methylphenyl]-3-(2,2,2-trifluoroethyl)pyrrolidine-1-carboxamide], 1 to 10 nM.

As to `Cc1ccc(NC(=O)N2CC[C@@H](CC(F)(F)F)C2)cc1-c1cc(-c2cn[nH]c2)nc(N2CCOCC2)c1` [Example 33, (3S)—N-[4-methyl-3-[2-(morpholin-4-yl)-6-(1H-pyrazol-4-yl)pyridin-4-yl]phenyl]-3-(2,2,2-trifluoroethyl)pyrrolidine-1-carboxamide], the half-maximal inhibitory concentration (IC50) was below 1 nM.
